What all share (assay): DTP human tumour cell line panel, 48 h
In assay [1] the test system is SF-539 CNS.
The subject of assay [2] is HOP-62 NSCLC.
For assay [3], the system named is EKVX NSCLC.
The subject of assay [4] is MALME-3M melanoma.
In assay [5] the test system is HT29 colon.
Assay [6] deals with SW-620 colon.
The test system of assay [7] is NCI-H522 lung.
Assay [8] concerns SK-MEL-5 melanoma.
In assay [9] the test system is UO-31 renal.
Assay [10] has as its system M14 melanoma.

SMILES strings stand for the structures.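 Test compounds were applied to cells in 96-well plates for 48 hours at 5 doses. GI50 marks 50% less growth. TGI is the concentration that stops growth completely.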

Regarding `CN1CCc2nc3sc(C(N)=O)c(N)c3c(-c3cccs3)c2C1`, the GI50 (in general, the concentration at which growth is held to half of that of the control) in assay [1] was 2.35 µM; in assay [2], 3.27 µM; in assay [3] it was 3.54 µM; in assay [4], 5.06 µM; in assay [5], 3.11 µM; in [6], 4.02 µM. In addition, the GI50 is 2.91 µM in assay [7], 1.43 µM in assay [8], 3.47 µM in assay [9] and 4.19 µM in assay [10]. Besides, the TGI – broadly, the concentration giving total growth inhibition – in assay [1] is 6.79 µM; in assay [2] it was > 100 µM; in [3], > 100 µM; in assay [4], 38.4 µM; in assay [5], 70.9 µM; in [6], > 100 µM. Also, the TGI in assay [7] was 17.8 µM; in assay [8], 5.24 µM; in [9], > 100 µM; in assay [10], 19.4 µM.
In the case of `Fc1ccc(/C=N/n2c(-c3ccc(F)c(Cl)c3)n[nH]c2=S)cc1`, the GI50 in assay [1] is 32 µM; in [2], 16.7 µM; in [3], 32.3 µM; in assay [4] it was 18.3 µM; in assay [5], 35.3 µM; in assay [6], 30.2 µM. The GI50 in assay [7] is 23.3 µM; in [8] it was 42.9 µM; in [9], 18.9 µM; in [10], 23.8 µM. For the same molecule, the TGI in assay [1] was > 100 µM; in assay [2] it was 31.4 µM; in [3], > 100 µM; in assay [4] it was 60.2 µM; in assay [5], > 100 µM; in [6], > 100 µM. In addition, the TGI is 52.2 µM in [7], > 100 µM in assay [8], 41.5 µM in assay [9] and 71.6 µM in assay [10].
Regarding `COc1ccc2c(-c3ccnc(Nc4cccc(OC(F)(F)F)c4)n3)cnn2n1`, the GI50 in assay [1] is 0.909 µM; in [2], 1.11 µM; in assay [3], 2.87 µM; in assay [4] it was 5.43 µM; in [5], 0.912 µM; in assay [6], 0.856 µM. For the same molecule, the GI50 in assay [7] is 0.366 µM; in assay [8], 1.1 µM; in assay [9] it was 2.55 µM; in assay [10], 1.26 µM. Further, the TGI in assay [1] was 3.52 µM; in assay [2], > 15.9 µM; in assay [3], > 25 µM; in [4], > 25 µM; in [5], 3.06 µM; in assay [6], 4.84 µM. The TGI in assay [7] was 1.77 µM; in assay [8], 9.56 µM; in assay [9], > 12.3 µM; in assay [10] it was > 12.9 µM.
As to `O=C1OC(=O)c2c1c(-c1ccccc1)nc1ccccc21`, the TGI in assay [1], in assay [2], in assay [3], in assay [4], in [5] and in assay [6] was > 100 µM in each case. For the same molecule, the TGI in [7], in assay [8], in assay [9] and in [10] was > 100 µM throughout.
Regarding `CC1C=CC(OC(=O)C(C)(O)CCC(O)(C(=O)OC2CC(O)C(C(C)C)CC2(C)O)C(C)C)(C(C)C)CC1` (configuration not stated), the GI50 in assay [1] is 0.685 µM; in assay [2], 0.641 µM; in assay [3], 0.618 µM; in assay [4], 0.709 µM; in assay [5] it was 0.599 µM; in assay [6] it was 0.604 µM. In addition, the GI50 is 0.576 µM in [7], 0.377 µM in assay [8], 0.329 µM in [9] and 0.745 µM in [10]. Besides, the TGI in assay [1] worked out at 1.35 µM; in [2], 1.66 µM; in assay [3], 1.41 µM; in [4], 1.45 µM; in assay [5], 1.56 µM; in assay [6] it was 1.41 µM. The TGI worked out at 1.36 µM in assay [7], 1.03 µM in assay [8], 1.02 µM in [9] and 1.81 µM in assay [10].
For `O=Cc1ccc2c(c1I)OCO2`, the TGI in assay [1], in assay [2], in assay [3], in [4], in assay [5] and in assay [6] was > 100 µM each time. Moreover, the TGI in assay [7], in [8], in [9] and in assay [10] was > 100 µM throughout.
`C=CCc1cc(Nc2c3ccc(Cl)cc3nc3ccc(OC)cc23)cc(CN(CC)CC)c1O`: the GI50 is 2.45 µM in assay [1]; 2.92 µM in assay [2]; 0.661 µM in assay [3]; 1.87 µM in [4]; 1.75 µM in assay [5]; 1.97 µM in [6]. For the same molecule, the GI50 in assay [7] was 1.77 µM; in [8] it was 1.24 µM; in assay [9] it was 2.02 µM; in assay [10] it was 1.9 µM. The TGI in [1] is 9.16 µM; in [2], 13.5 µM; in assay [3], 11.1 µM; in assay [4] it was 6.78 µM; in assay [5], 10.1 µM; in assay [6], 11.4 µM. Besides, the TGI was determined as 5.96 µM in [7], 2.49 µM in assay [8], 11 µM in assay [9] and 5.3 µM in assay [10].
As to `O=C(CN1N=C(c2ccc(F)cc2)CCC1=O)Nc1nc2ccccc2s1`, the GI50 in assay [1] is 1.7 µM; in [3], 2.82 µM; in assay [4], 0.621 µM; in assay [5], 3.32 µM; in assay [6], > 49.5 µM; in [7], 0.187 µM. Further, the GI50 in [8] is > 93.2 µM; in assay [9], 0.182 µM; in assay [10] it was 33.2 µM. The TGI is 3.19 µM in assay [1]; > 100 µM in assay [2]; > 100 µM in assay [3]; 1.56 µM in assay [4]; 11.5 µM in [5]; > 100 µM in assay [6]. In addition, the TGI is 0.371 µM in assay [7], > 100 µM in assay [8], 0.405 µM in assay [9] and > 100 µM in [10].
`CCN1C(=O)N(CC)C2C1NN=c1s/c(=C\c3ccc(F)cc3)c(=O)n12` (configuration not stated): the GI50 in assay [1] was 0.158 µM; in [2], 0.287 µM; in [3] it was 0.396 µM; in assay [4], 28.9 µM; in [5] it was 0.0614 µM; in assay [6] it was 0.14 µM. Further, the GI50 was 0.0931 µM in assay [7], 0.0865 µM in assay [8], 0.601 µM in assay [9] and 0.136 µM in [10]. The TGI was 0.527 µM in assay [1]; > 100 µM in assay [2]; > 100 µM in assay [3]; > 100 µM in [4]; > 100 µM in [5]; > 100 µM in assay [6]. The TGI is 0.903 µM in assay [7], 5.7 µM in assay [8], > 100 µM in assay [9] and > 100 µM in [10].
Turning to `CSc1ccc(C2=NN(C(C)=O)C(c3ccc(-c4ccc(Cl)cc4)o3)C2)cc1` (configuration not stated), the GI50 in assay [1] was 60.2 µM; in assay [2] it was 42.4 µM; in assay [3], 50.2 µM; in [4] it was 43.2 µM; in assay [5] it was 30.4 µM; in [6] it was 77.7 µM. In addition, the GI50 in assay [7] was 18.7 µM; in assay [8], 29.1 µM; in [9], 28.5 µM; in assay [10], 29.8 µM. The TGI in assay [1], in assay [2], in [3], in assay [4], in assay [5] and in assay [6] was > 100 µM throughout. For the same molecule, the TGI in assay [7] was 60.3 µM; in [8] it was > 100 µM; in [9] it was > 100 µM; in assay [10], > 100 µM.
For the molecule `COC(=O)c1cc(-c2ccc(OC)c(OC)c2)[nH]c1N/N=C/c1c(Cl)cccc1Cl`, the GI50 in assay [1] was 0.317 µM; in [2] it was 1.17 µM; in [3] it was 0.708 µM; in [4], 0.86 µM; in assay [5], 0.434 µM; in assay [6], 0.443 µM. Further, the GI50 was 0.502 µM in assay [7], 0.387 µM in [8], 0.834 µM in [9] and 0.523 µM in [10]. The TGI in assay [1] came to 1.02 µM; in assay [2], 10.1 µM; in assay [3], 19.5 µM; in assay [4] it was 31.8 µM; in assay [5] it was 2.3 µM; in assay [6], 12.7 µM. Also, the TGI in [7] stood at 2.51 µM; in assay [8], 4.56 µM; in [9], 3.25 µM; in [10], 5.2 µM.
Turning to `COc1cc(C2(C)SCCCS2)cc(OC)c1OC`, the TGI in assay [1], in assay [2], in [3], in assay [4], in assay [5] and in assay [6] was > 100 µM each time. Also, the TGI in assay [7], in assay [8], in assay [9] and in assay [10] was > 100 µM in each case.
Take `CC(CO)(Nc1ccc([N+](=O)[O-])cc1[N+](=O)[O-])C(=O)O` (configuration not stated): the TGI in assay [1] was 91.1 µM; in assay [2] it was > 100 µM; in assay [3], 71.3 µM; in assay [4] it was 36.1 µM; in assay [5] it was 30.4 µM; in [6], 33.4 µM. For the same molecule, the TGI is 39 µM in assay [7], 44.5 µM in [8], 37.4 µM in assay [9] and > 100 µM in [10].
On to `COC(=O)C(C(=O)C(=O)Nc1ccc([N+](=O)[O-])cc1)c1nc2ccc([N+](=O)[O-])cc2[nH]c1=O` (configuration not stated), for which the TGI in assay [1], in assay [2], in assay [3], in [4], in [5] and in assay [6] was > 100 µM each time. The TGI in assay [7], in assay [8], in assay [9] and in [10] was > 100 µM throughout.
For the molecule `COc1cc(/C=C/c2ccc3c(Br)cc(Br)c(O)c3n2)ccc1O`, the GI50 in assay [1] is 2.29 µM; in assay [2], 1.51 µM; in [3] it was 1.42 µM; in assay [4] it was 4.81 µM; in assay [5], 3.86 µM; in [6], 2.24 µM. For the same molecule, the GI50 in assay [7] was 2.36 µM; in assay [8] it was 1.47 µM; in [9], 1.28 µM; in [10], 1.61 µM. Moreover, the TGI amounted to 10.3 µM in assay [1]; 8.07 µM in assay [2]; 14.9 µM in [3]; 18.4 µM in assay [4]; 12.8 µM in assay [5]; 13 µM in assay [6]. For the same molecule, the TGI in assay [7] stood at 11 µM; in assay [8], 10.3 µM; in assay [9], 12.4 µM; in [10], 10.6 µM.
On to `Cc1cccc(NC(=O)/C(=N\N)C(c2cnc3ccc([N+](=O)[O-])cc3n2)[N+](=O)[O-])c1C` (configuration not stated), for which the TGI in assay [1], in [2], in [3], in [4], in [5] and in [6] was > 100 µM in each case. The TGI in [7], in assay [8], in assay [9] and in assay [10] was > 100 µM each time.
With `COc1cc(C(=O)c2cc(C)c3[nH]c4ccc(O)cc4c3c2C)cc(OC)c1OC`, the GI50 in [1] is < 0.0113 µM; in assay [2] it was 0.0297 µM; in assay [3], 0.0466 µM; in assay [4] it was 0.0347 µM; in assay [5], 0.0276 µM; in assay [6], < 0.0129 µM. In addition, the 50% growth inhibitory concentration (GI50) in [7] was < 0.01 µM; in [8], 0.0162 µM; in assay [9], 0.269 µM; in [10] it was 0.0185 µM. The TGI was > 70.9 µM in assay [2]; > 100 µM in assay [3]; > 100 µM in assay [4]; > 100 µM in [6]; 2.21 µM in [7]; 0.0637 µM in [8]. The TGI in [9] and in [10] was > 100 µM in each case.
`Cn1ccnc1Oc1ccc(Cl)cc1`: the TGI in assay [1] worked out at 31.7 µM; in [2] it was 65.6 µM; in assay [3], 49.1 µM; in [4], 10.2 µM; in assay [5] it was 26.6 µM; in [6], 26.4 µM. Besides, the TGI stood at 11.6 µM in [7], 27.1 µM in assay [8], 23.9 µM in [9] and 37.2 µM in assay [10].
